Laboratory results as given in US5955576A, “Inhibitors of thrombosis” (Corvas International, Inc., priority 1995, dated 1999).
Like-named read-outs stand apart in the source and are kept apart here. Peptide text beside a SMILES is read from it. * marks the point of attachment. Hydrocinnamoyl = O=C(CCc1ccccc1)*; Tos = Cc1ccc(S(=O)(=O)*)cc1

Key:
[1] = tested on: FeCl3 -induced platelet-dependent arterial thrombosis; assay type: in vivo; details: rat carotid artery
Source text: Res., 60: 269-280 (1990). […] Res., 60: 269-280 (1990). […] The animals were then euthanized.

plasmin = plasmin (Homo sapiens, UniProt P00747); experiment: Plasmin assay, chromogenic substrate S-2251; assay type: biochemical; details: purified human enzyme, 30 minute incubation, HBSA pH 7.5
Experimental: (§1) The buffer used for all assays was HBSA (10 mM HEPES, pH 7.5, 150 mM sodium chloride, 0.1% bovine serum albumin). […] Following a 30 minute incubation at ambient temperature, 50 μL of the substrate at the concentrations specified below, was added to the wells yielding a final total volume of 200 μL. The initial velocity of chromogenic substrate hydrolysis was measured by the change in absorbance at 405 nm using a Thermo Max® Kinetic Microplate Reader over a 5 minute period in which less than 5% of the added substrate was utilized.
Plasmin catalytic activity was determined using the chromogenic substrate, S-2251 [D-valyl-L-leucyl-L-lysine-p-nirtoanilide dihydrochloride], which was obtained from Kabi Diagnostica.

factor Xa = molecular target: T1, factor Xa (Homo sapiens, UniProt P00742); experiment: Factor Xa assay, chromogenic substrate S2765; assay type: biochemical; details: purified human enzyme, 30 minute incubation, HBSA pH 7.5
T1 construct: Human factor Xa was prepared from purified human factor X obtained from Enzyme Research Laboratories; purchased Enzyme Research Laboratories
Experimental: as §1
Factor Xa catalytic activity was determined using the substrate, S2765 (N-α-benzyloxycarbonyl-D-argininyl-L-glycyl-L-arginine-p-nitroanilide dihydrochloride) which was obtained from Kabi Diagnostica. […] Human factor Xa was prepared from purified human factor X obtained from Enzyme Research Laboratories according to the method described by Bock, P. E. et al., Archives of Biochem. Biophys. 273: 375 (1989). The enzyme was diluted into HBSA prior to the assay in which the final concentration was 0.5 nM.

thrombin = thrombin (Homo sapiens, UniProt P00734); experiment: Thrombin assay, chromogenic substrate Pefachrome t-PA; assay type: biochemical; details: purified human enzyme, 30 minute incubation, HBSA pH 7.5
Experimental: The buffer used for all assays was HBSA (10 mM HEPES, pH 7.5, 150 mM sodium chloride, 0.1% bovine serum albumin). […] Following a 30 minute incubation at ambient temperature, 50 μL of the substrate at the concentrations specified below, was added to the wells yielding a final total volume of 200 μL.
Thrombin catalytic activity was determined using the chromogenic substrate Pefachrome t-PA (CH3 SO2 -D-hexahydrotyrosine-glycyl-L-arginine-p-nitroaniline, obtained from Pentapharm Ltd.).

[2] = Pharmacokinetics after oral and i.v. administration in dogs; assay type: in vivo, dog
Experimental: The pharmacodynamic and pharmacokinetic parameters of the compound of Example 34 (and same compound described in Example 91) were evaluated after oral administration in dogs. Adult beagle dogs (9-12 kg) were housed individually in standard cages, and were fed a standard certified commercial diet and tap water ad libitum. Dogs were given an oral dose of either 10 mg/kg or 20 mg/kg test compound, in 55 ml deionized water, via a gastric tube, followed by a water rinse. In a separate protocol, 5 mg/kg of test compound, in 5 ml 0.9% sodium chloride, were administered by fast bolus i.v. injection through an indwelling saphenous vein catheter. The same dogs were used for all doses and both routes of administration, with a one week wash out period between use of the dogs for the different doses and protocols. […]
(§2) The blood levels of test compound were measured by extracting the compound from plasma, separation by HPLC, and post-column derivatization with a fluorogenic functional group. The clotting time of blood was measured using an APTT assay, which measures the prolongation of the activated partial thromboplastin time (APTT) by the test compound. […]
The systemic bioavailability of the test compound administered by the oral route was calculated by comparing the AUC values (area under curve describing level of compound in blood over time) after i.v. and oral administration. […]

[3] = tested on: activated partial thromboplastin time (APTT); experiment: APTT clotting time of blood samples after oral dosing in dogs; assay type: in vivo, dog; details: both doses (10 and 20 mg/kg)
Experimental: The pharmacodynamic and pharmacokinetic parameters of the compound of Example 34 (and same compound described in Example 91) were evaluated after oral administration in dogs. Adult beagle dogs (9-12 kg) were housed individually in standard cages, and were fed a standard certified commercial diet and tap water ad libitum. Dogs were given an oral dose of either 10 mg/kg or 20 mg/kg test compound, in 55 ml deionized water, via a gastric tube, followed by a water rinse. In a separate protocol, 5 mg/kg of test compound, in 5 ml 0.9% sodium chloride, were administered by fast bolus i.v. injection through an indwelling saphenous vein catheter. The same dogs were used for all doses and both routes of administration, with a one week wash out period between use of the dogs for the different doses and protocols.
Blood samples were collected during the experimental period from the cephalic vein using sodium citrate (0.38% final concentration) as anticoagulant (nine volumes blood to one volume sodium citrate). […]
as §2

Chain of plasmin (P00747 581-810 limits assumed): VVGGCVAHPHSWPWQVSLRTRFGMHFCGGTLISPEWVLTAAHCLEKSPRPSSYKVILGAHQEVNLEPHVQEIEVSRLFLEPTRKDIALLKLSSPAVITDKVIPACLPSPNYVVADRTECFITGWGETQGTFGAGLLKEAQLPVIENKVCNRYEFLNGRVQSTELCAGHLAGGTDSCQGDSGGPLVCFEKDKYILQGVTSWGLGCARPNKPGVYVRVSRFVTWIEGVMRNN
Chain of plasmin (P00747 97-580 partner limits assumed): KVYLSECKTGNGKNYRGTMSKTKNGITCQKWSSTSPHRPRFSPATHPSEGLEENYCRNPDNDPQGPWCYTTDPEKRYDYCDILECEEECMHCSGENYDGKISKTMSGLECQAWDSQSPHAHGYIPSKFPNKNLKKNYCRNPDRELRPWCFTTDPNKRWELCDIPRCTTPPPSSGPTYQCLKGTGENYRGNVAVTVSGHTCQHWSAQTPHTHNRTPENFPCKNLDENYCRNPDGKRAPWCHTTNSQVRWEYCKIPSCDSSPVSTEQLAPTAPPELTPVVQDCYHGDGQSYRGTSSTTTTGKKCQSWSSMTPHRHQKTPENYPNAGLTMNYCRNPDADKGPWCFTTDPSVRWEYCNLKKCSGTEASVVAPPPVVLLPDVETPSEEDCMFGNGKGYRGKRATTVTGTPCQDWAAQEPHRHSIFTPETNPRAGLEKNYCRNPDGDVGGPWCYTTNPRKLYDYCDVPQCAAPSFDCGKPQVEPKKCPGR
T1 sequence (P00742 235-488 limits assumed): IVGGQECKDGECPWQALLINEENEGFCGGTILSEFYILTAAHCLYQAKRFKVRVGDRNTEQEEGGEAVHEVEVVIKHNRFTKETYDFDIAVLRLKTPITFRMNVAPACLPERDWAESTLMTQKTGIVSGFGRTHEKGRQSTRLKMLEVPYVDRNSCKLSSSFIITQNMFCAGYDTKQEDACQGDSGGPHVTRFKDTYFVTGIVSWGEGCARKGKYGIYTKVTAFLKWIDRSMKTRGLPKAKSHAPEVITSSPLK
T1 sequence (P00742 41-179 partner limits assumed): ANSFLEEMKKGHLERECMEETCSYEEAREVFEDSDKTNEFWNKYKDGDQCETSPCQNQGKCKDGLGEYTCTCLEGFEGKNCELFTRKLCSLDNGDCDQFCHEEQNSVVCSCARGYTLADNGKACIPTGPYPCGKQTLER

Compound	IC50 (plasmin)	IC50 (factor Xa)	IC50 (thrombin)	further results
N=C(N)NCCC[C@@H](C=O)NC(=O)[C@@H]1CCCN1C(=O)[C@H](CC(=O)O)NC(=O)CCc1ccccc1 [HCA-Asp-Pro-Arg-al, N-(3-phenylpropionyl)-L-aspartyl-L-prolyl-L-argininal] (Hydrocinnamoyl-Asp-Pro-Arg-aldehyde)	0.481 µM			Incidence of Occlusion ([1]; Group1, 25 μg/kg/min i.v. infusion): 5/6; Incidence of Occlusion ([1]; Group2, 50 μg/kg/min i.v. infusion): 1/5; Incidence of Occlusion ([1]; Group3, 100 μg/kg/min i.v. infusion): 0/5
CCCC(CCC)C(=O)N[C@@H](CC(=O)O)C(=O)N1CCC[C@H]1C(=O)N[C@H](C=O)CCCNC(=N)N [2PrPent-Asp-Pro-Arg-al, N-(2-propylpentanoyl)-L-aspartyl-L-prolyl-L-argininal]	0.254 µM			
COC(=O)C[C@H](NS(=O)(=O)c1ccc(C)cc1)C(=O)N1CCC[C@H]1C(=O)N[C@H](C=O)CCCNC(=N)N [(4-MePh)SO2 -Asp(OCH3)-Pro-Arg-al, N-(4-methylphenylsulfonyl)-L-aspartyl-(β-methyl ester)-L-prolyl-L-argininal] (Tos-Asp(OMe)-Pro-Arg-aldehyde)	0.111 µM	0.0095 µM	0.0011 µM	
N=C(N)NCCC[C@@H](C=O)NC(=O)[C@@H]1CCCN1C(=O)[C@H](CC(=O)O)NC(=O)CC1CCCCC1 [ChxAc-Asp-Pro-Arg-al, N-(1-cyclohexylacetyl)-L-aspartyl-L-prolyl-L-argininal]	0.075 µM	0.015 µM	0.047 µM	
CCCC(CCC)C(=O)N[C@@H](CC(=O)OC)C(=O)N1CCC[C@H]1C(=O)N[C@H](C=O)CCCNC(=N)N [2PrPent-Asp(OCH3)-Pro-Arg-al, N-(2-propylpentanoyl)-L-aspartyl-β-(methyl ester)-L-prolyl-L-argininal]	0.261 µM			
CC(C)CCC(=O)N[C@@H](CC(=O)O)C(=O)N1CCC[C@H]1C(=O)N[C@H](C=O)CCCNC(=N)N [4MeV-Asp-Pro-Arg-al, N-(4-methylpentanoyl)-L-aspartyl-L-prolyl-L-argininal]	0.396 µM			
CCCCS(=O)(=O)N[C@@H](CC(=O)OC)C(=O)N1CCC[C@H]1C(=O)N[C@H](C=O)CCCNC(=N)N [n-BuSO2 -Asp(OCH3)-Pro-Arg-al, N-(butylsulfonyl)-L-aspartyl-(β-methyl ester)-L-prolyl-L-argininal]	0.25 µM	0.015 µM	0.0037 µM	
N=C(N)NCCC[C@@H](C=O)NC(=O)[C@@H]1CCCN1C(=O)[C@H](CC(=O)O)NC(=O)CCC1CCCCC1 [ChxPA-Asp-Pro-Arg-al, N-(3-cyclohexanepropionyl)-L-aspartyl-L-prolyl-L-argininal]	0.25 µM			
COC(=O)C[C@H](NS(=O)(=O)c1ccc2ccccc2c1)C(=O)N1CCC[C@H]1C(=O)N[C@H](C=O)CCCNC(=N)N [2-NpSO2 -Asp(OCH3)-Pro-Arg-al, N-(2-naphthylsulfonyl)-L-aspartyl-(β-methyl ester)-L-prolyl-L-argininal]	0.106 µM	0.0043 µM	0.00062 µM	
N-phenylsulfonyl-L-aspartyl-(β-methyl ester)-L-prolyl-L-argininal [BzlSO2 -Asp(OCH3)-Pro-Arg-al]		0.03 µM	0.005 µM	
CCCC(CCC)C(=O)N[C@@H](CC(=O)OC)C(=O)N1CCC[C@H]1C(=O)N[C@H](C=O)CCCNC(=N)N.O=C(O)C(F)(F)F [Example 34, N-(2-propylpentanoyl)-L-aspartyl-beta-(methyl ester)-L-prolyl-L-argininal, trifluoroacetate salt]				time to maximum blood level of compound [2]: 45 to 60 min; duration of elevated APTT [3]: up to two hours; time to significant elevation of APTT [3]: 20 to 30 min
